The assay concerns the target T1, α4β7 integrin (Homo sapiens, UniProt P13612+P26010).
T1 construct: monitoring the capture of α4β7 integrin expressing cells on a recombinant MadCAM-1 extracellular domain-coated plate; endogenous in cells; host or cells: RPMI8866 cells
T1 sequence (P13612 34-1032): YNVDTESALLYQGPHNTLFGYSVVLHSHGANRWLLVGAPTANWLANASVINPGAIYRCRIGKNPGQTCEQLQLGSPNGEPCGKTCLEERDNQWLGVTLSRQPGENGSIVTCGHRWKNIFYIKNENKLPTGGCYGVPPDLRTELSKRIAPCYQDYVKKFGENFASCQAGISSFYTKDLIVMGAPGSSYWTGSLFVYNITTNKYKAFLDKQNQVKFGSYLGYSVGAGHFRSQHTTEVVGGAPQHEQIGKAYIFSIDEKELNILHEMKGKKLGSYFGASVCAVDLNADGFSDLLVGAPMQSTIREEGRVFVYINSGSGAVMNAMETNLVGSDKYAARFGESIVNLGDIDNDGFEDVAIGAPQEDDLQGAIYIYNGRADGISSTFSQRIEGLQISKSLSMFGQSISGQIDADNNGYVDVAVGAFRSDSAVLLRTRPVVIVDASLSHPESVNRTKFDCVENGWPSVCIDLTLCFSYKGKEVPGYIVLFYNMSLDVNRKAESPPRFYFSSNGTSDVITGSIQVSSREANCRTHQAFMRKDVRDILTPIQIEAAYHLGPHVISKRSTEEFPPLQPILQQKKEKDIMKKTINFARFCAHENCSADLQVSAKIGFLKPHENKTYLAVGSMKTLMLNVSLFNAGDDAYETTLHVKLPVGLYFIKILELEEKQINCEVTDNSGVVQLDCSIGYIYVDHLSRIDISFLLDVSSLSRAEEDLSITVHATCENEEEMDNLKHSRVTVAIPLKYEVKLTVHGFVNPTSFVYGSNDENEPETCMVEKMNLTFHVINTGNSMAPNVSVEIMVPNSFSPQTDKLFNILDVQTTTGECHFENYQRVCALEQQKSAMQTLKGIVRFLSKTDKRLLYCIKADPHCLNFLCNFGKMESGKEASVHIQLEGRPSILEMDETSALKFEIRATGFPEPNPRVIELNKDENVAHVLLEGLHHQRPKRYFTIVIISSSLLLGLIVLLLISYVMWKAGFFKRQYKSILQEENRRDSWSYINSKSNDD
T1 sequence (P26010 20-798): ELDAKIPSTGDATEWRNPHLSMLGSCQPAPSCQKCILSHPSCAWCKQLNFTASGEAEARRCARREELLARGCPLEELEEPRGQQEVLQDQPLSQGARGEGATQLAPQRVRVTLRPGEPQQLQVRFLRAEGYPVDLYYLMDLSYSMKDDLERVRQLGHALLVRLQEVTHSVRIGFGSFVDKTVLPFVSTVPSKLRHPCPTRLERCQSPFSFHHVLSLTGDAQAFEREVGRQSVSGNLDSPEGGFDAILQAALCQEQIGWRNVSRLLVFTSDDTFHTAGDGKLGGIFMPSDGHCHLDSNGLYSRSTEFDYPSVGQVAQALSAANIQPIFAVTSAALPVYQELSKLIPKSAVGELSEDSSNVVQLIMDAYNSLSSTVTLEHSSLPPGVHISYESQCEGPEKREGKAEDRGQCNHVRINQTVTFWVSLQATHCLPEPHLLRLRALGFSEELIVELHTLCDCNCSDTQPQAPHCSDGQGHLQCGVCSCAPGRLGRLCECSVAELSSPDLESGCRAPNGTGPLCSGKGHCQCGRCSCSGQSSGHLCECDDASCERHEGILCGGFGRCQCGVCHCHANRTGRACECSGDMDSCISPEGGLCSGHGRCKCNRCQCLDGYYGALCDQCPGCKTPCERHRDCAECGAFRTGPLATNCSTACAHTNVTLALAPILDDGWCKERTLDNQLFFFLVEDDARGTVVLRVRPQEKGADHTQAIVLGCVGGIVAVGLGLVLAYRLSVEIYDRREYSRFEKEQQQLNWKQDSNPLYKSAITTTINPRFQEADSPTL
As to the kind of experiment: α4β7 Integrin Cell Capture Assay. The class given is cell-based. Particulars: capture of α4β7 integrin expressing RPMI8866 cells on recombinant MadCAM-1 extracellular domain-coated plate; DMEM+0.5% FBS+0.5 mM MnCl2; read-out: EC50 α4β7. The procedure, abridged: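 RPMI8866 cells in DMEM + 0.5% FBS + 0.5 mM MnCl2 preincubated with compound 1 h at 37 °C, then allowed to bind 30 min at 37 °C to plates coated with MAdCAM-1 extracellular domain (1.0 μg/mL). Cells fixed with glutaraldehyde, Hoechst-stained, imaged and bound cells counted; EC50 from cell count versus concentration.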

As for `O=C(N[C@@H](Cc1ccc(-c2ncc3ccccc3c2Br)c2ccccc12)C(=O)O)c1c(F)cccc1F` [Example 114, (S)-3-(4-(4-bromoisoquinolin-3-yl)naphthalen-1-yl)-2-(2,6-difluorobenzamido)propanoic acid], the EC50 – broadly, the midpoint of the concentration-response curve – was found to be 29.9 nM. Regarding `O=C(N[C@@H](Cc1ccc(-c2ncc3ccccc3c2C(F)(F)F)c2ccccc12)C(=O)O)c1c(Cl)cccc1Cl` [Example 115, (S)-2-(2,6-dichlorobenzamido)-3-(4-(4-(trifluoromethyl)isoquinolin-3-yl)naphthalen-1-yl)propanoic acid], the EC50 came out at 21.7 nM.

On to `O=C(N[C@@H](Cc1ccc(-c2cc(F)c(F)cc2OC2CC2)c2ccccc12)C(=O)O)c1c(Cl)cccc1Cl` [Example 116, (S)-3-(4-(2-cyclopropoxy-4,5-difluorophenyl)naphthalen-1-yl)-2-(2,6-dichlorobenzamido)propanoic acid], for which the EC50 was determined as 72.6 nM.

As to `Cn1c(=O)c(-c2ccc(C[C@H](NC(=O)c3c(Cl)cccc3Cl)C(=O)O)c3ccccc23)c(C(F)(F)F)c2ccccc21` [Example 121, (S)-2-(2,6-dichlorobenzamido)-3-(4-(1-methyl-2-oxo-4-(trifluoromethyl)-1,2-dihydroquinolin-3-yl)naphthalen-1-yl)propanoic acid], the EC50 is 3.9 nM. As for `Cc1ccnc(-c2ccc(C[C@H](NC(=O)c3c(F)cc(N4CCOC[C@@H]4C(F)(F)F)cc3F)C(=O)O)c3ccccc23)c1C(F)(F)F` [Example 122], the figure is 1.1 nM; as for `CC[C@@H](Nc1cc(F)c(C(=O)N[C@@H](Cc2ccc(-c3nccc(C)c3C(F)(F)F)c3ccccc23)C(=O)O)c(F)c1)C(F)(F)F` [Example 123, (S)-2-(2,6-difluoro-4-(((R)-1,1,1-trifluorobutan-2-yl)amino)benzamido)-3-(4-(4-methyl-3-(trifluoromethyl)pyridin-2-yl)naphthalen-1-yl)propanoic acid], 10.2 nM.

As for `Cc1c(-c2ccc(C[C@H](NC(=O)c3c(F)cc(N4CCOC[C@@H]4C(F)(F)F)cc3F)C(=O)O)c3ccccc23)c(=O)n(C)c(=O)n1C` [Example 138, (S)-2-(2,6-difluoro-4-((R)-3-(trifluoromethyl)morpholino)benzamido)-3-(4-(1,3,6-trimethyl-2,4-dioxo-1,2,3,4-tetrahydropyrimidin-5-yl)naphthalen-1-yl)propanoic acid], the EC50 worked out at 0.3 nM. Consider `CC[C@@H](Nc1cc(F)c(C(=O)N[C@@H](Cc2ccc(-c3c(C)n(C)c(=O)n(C)c3=O)c3ccccc23)C(=O)O)c(F)c1)C(F)(F)F` [Example 139, (S)-2-(2,6-difluoro-4-(((R)-1,1,1-trifluorobutan-2-yl)amino)benzamido)-3-(4-(1,3,6-trimethyl-2,4-dioxo-1,2,3,4-tetrahydropyrimidin-5-yl)naphthalen-1-yl)propanoic acid], for which the EC50 amounted to 0.4 nM. Under `Cn1c(=O)c(-c2ccc(C[C@H](NC(=O)c3c(F)cc(N4CCOC[C@@H]4C(F)(F)F)cc3F)C(=O)O)c3ccccc23)cc2cnccc21` [Example 140, (S)-2-(2,6-difluoro-4-((R)-3-(trifluoromethyl)morpholino)benzamido)-3-(4-(1-methyl-2-oxo-1,2-dihydro-1,6-naphthyridin-3-yl)naphthalen-1-yl)propanoic acid] stands 0.1 nM; under `Cc1cnc(-c2ccc(C[C@H](NC(=O)c3c(F)cc(N4CCOC[C@@H]4C(F)(F)F)cc3F)C(=O)O)c3ccccc23)nc1C` [Example 141, (S)-2-(2,6-difluoro-4-((R)-3-(trifluoromethyl)morpholino)benzamido)-3-(4-(4,5-dimethylpyrimidin-2-yl)naphthalen-1-yl)propanoic acid], 3.6 nM; under `CC[C@@H](Nc1cc(F)c(C(=O)N[C@@H](Cc2ccc(-c3cc4cnccc4n(C)c3=O)c3ccccc23)C(=O)O)c(F)c1)C(F)(F)F` [Example 142], 0.5 nM. Under `CCOCc1cc(OC)c(-c2ccc(CC(NC(=O)c3c(F)cc(NS(=O)(=O)c4ccc(-c5ccnc(F)c5)cc4)cc3F)C(=O)O)c3c2cnn3C)c(OC)c1` (stereo not shown) [Example 143, 2-(2,6-difluoro-4-((4-(2-fluoropyridin-4-yl)phenyl)sulfonamido)benzamido)-3-(4-(4-(ethoxymethyl)-2,6-dimethoxyphenyl)-1-methyl-1H-indazol-7-yl)propanoic acid] stands 30.2 nM.

In the case of `CCOCc1cc(OC)c(-c2ccc(C[C@H](NC(=O)c3c(F)cc(NS(=O)(=O)c4ccc(-c5ccnc(F)c5)cc4)cc3F)C(=O)O)c3c2cnn3C)c(OC)c1` [Example 144], the EC50 worked out at 4.9 nM. Regarding `CCOCc1cc(OC)c(-c2ccc(CC(NC(=O)c3c(F)cc(NS(=O)(=O)c4ccc(-c5ccnc(F)c5)cc4)cc3F)C(=O)O)c3cnn(C)c23)c(OC)c1` (stereo not shown) [Example 146, 2-(2,6-difluoro-4-((4-(2-fluoropyridin-4-yl)phenyl)sulfonamido)benzamido)-3-(7-(4-(ethoxymethyl)-2,6-dimethoxyphenyl)-1-methyl-1H-indazol-4-yl)propanoic acid], the EC50 was determined as 0.6 nM. Under `CCOCc1cc(OC)c(-c2ccc(C[C@H](NC(=O)c3c(F)cc(NS(=O)(=O)c4ccc(-c5ccnc(F)c5)cc4)cc3F)C(=O)O)c3nsnc23)c(OC)c1` [Example 149, (S)-2-(2,6-difluoro-4-((4-(2-fluoropyridin-4-yl)phenyl)sulfonamido)benzamido)-3-(7-(4-(ethoxymethyl)-2,6-dimethoxyphenyl)benzo[c]-[1,2,5]thiadiazol-4-yl)propanoic acid] stands 0.3 nM. Under `O=C(N[C@@H](Cc1ccc(-c2c(Cl)cc(F)cc2Cl)c2nsnc12)C(=O)O)c1c(F)cccc1F` [Example 150, (S)-3-(7-(2,6-dichloro-4-fluorophenyl)benzo[c][1,2,5]thiadiazol-4-yl)-2-(2,6-difluorobenzamido)propanoic acid] stands 181 nM; under `CCOCc1cc(OC)c(-c2ccc(C[C@H](NC(=O)c3c(F)cc(NS(=O)(=O)c4ccc(-c5ccnc(F)c5)cc4)cc3F)C(=O)O)c3nc(C)oc23)c(OC)c1` [Example 151, (S)-2-(2,6-difluoro-4-((4-(2-fluoropyridin-4-yl)phenyl)sulfonamido)benzamido)-3-(7-(4-(ethoxymethyl)-2,6-dimethoxyphenyl)-2-methylbenzo[d]oxazol-4-yl) propanoic acid], 5.8 nM; under `CCOCc1cc(OC)c(-c2ccc(C[C@H](NC(=O)c3c(F)cccc3F)C(=O)O)c3nc(C)oc23)c(OC)c1` [Example 152, (S)-2-(2,6-difluorobenzamido)-3-(7-(4-(ethoxymethyl)-2,6-dimethoxyphenyl)-2-methylbenzo[d]oxazol-4-yl)propanoic acid], 57.8 nM. Take `CCOCc1cc(OC)c(-c2ccc(C[C@H](NC(=O)c3c(Cl)cccc3Cl)C(=O)O)c3nc(C)oc23)c(OC)c1` [Example 153, (S)-2-(2,6-dichlorobenzamido)-3-(7-(4-(ethoxymethyl)-2,6-dimethoxyphenyl)-2-methylbenzo[d]oxazol-4-yl)propanoic acid]: the EC50 was found to be 28.4 nM.

The record behind these values is US11179383B2 (Gilead Sciences, Inc., priority 2018, dated 2021).
